The values that follow come from patent publication US12435058B2, “KIF18A inhibitors” (AMGEN INC., priority 2019, dated 2025).

In this experiment the target is T1, Recombinant human KIF18A (1-467 His-tagged) protein (Homo sapiens, UniProt Q8NI77).
T1 construct: Recombinant human KIF18A (1-467 His-tagged) protein; His; made in house
T1 sequence (Q8NI77 1-467): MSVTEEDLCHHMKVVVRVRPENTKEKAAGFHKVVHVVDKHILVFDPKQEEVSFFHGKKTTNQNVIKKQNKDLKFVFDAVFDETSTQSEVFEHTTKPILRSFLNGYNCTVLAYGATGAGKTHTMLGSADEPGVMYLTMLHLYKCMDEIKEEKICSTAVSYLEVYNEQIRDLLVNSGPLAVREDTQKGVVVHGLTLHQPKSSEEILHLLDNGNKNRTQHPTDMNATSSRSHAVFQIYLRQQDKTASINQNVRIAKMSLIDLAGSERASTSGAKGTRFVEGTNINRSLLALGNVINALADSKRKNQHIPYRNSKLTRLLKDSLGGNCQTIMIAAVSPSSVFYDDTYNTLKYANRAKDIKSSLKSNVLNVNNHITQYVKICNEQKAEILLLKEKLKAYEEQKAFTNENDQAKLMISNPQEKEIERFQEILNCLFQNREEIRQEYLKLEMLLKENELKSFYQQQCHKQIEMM
T1 sequence (P02550 whole entry partner): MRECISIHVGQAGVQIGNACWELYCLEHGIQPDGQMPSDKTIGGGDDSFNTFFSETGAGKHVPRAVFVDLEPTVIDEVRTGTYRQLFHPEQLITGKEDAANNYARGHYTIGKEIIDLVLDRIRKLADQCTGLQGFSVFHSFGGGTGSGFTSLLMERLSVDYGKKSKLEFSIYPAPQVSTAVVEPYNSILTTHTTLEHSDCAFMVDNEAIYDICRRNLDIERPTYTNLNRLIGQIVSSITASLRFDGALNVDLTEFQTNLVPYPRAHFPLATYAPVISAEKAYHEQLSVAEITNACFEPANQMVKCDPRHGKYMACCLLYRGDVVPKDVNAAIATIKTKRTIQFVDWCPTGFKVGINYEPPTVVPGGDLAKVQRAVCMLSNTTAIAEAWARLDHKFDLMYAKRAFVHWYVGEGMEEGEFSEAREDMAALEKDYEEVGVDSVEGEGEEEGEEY
T1 sequence (P02554 whole entry partner): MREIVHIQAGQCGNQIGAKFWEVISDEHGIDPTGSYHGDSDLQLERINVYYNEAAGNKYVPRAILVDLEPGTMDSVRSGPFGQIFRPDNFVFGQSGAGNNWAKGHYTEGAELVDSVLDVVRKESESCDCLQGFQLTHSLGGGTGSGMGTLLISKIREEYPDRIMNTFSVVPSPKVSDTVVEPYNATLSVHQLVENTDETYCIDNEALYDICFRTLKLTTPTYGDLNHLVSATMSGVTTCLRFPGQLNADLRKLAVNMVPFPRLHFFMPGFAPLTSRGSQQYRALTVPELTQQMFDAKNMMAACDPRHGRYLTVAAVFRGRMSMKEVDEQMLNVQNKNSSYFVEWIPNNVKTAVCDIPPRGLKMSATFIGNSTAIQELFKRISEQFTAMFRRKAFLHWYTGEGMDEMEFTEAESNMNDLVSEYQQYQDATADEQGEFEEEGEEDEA
The experiment in a line: KIF18A Enzyme Assay (microtubule-stimulated ATPase activity, ADP-Glo). The format is biochemical. The following applies: KIF18A protein 30 nM, ATP 75 μM (at Km), 30 μg/mL pig microtubules, ADP-Glo luminescence. An excerpt: For compounds in Table A, the following assay conditions were employed:
KIF18A Enzyme Assay: Microtubule-stimulated ATPase activity assay is used to measure KIF18A enzyme activity after treatment with compound. Compounds were 2-fold serially diluted in DMSO (Sigma Inc) over 22-point concentration range. Recombinant human KIF18A (1-467 His-tagged) protein was expressed using a baculovirus system and purified by affinity chromatography by Amgen Inc. Concentrations of KIF18A protein, microtubules (MT), and ATP in the reaction were optimized for standardized homogenous enzyme assay using ADP-Glom Kinase/ATPase Assay Kit (Promega Inc). The assay measures ADP formed from the ATPase reaction. […] Read luminescence using EnVision microplate reader with ultra-luminescence module (Perkin Elmer Inc). Concentration-response curve-fitting and IC50 determination was performed using Genedata Screener Software (Standard 15.0.1, Genedata Inc) with a four-parameter logistic regression fit model.
(ADP-Glo turns the ADP formed in a reaction into a luminescent signal.)
For the compound `CC(C)(C)NS(=O)(=O)c1cccc(NC(=O)c2ncc(NC(C)(C)CO)nc2N2CCC3(CC2)CC3)c1F` [Example 101-5, N-(3-(N-(tert-butyl)sulfamoyl)-2-fluorophenyl)-5-((1-hydroxy-2-methylpropan-2-yl)amino)-3-(6-azaspiro[2.5]octan-6-yl)pyrazine-2-carboxamide], the IC50 (usually the concentration needed to halve the response being measured) came to 527 nM.

Consider `CC(C)(CO)Nc1cnc(C(=O)Nc2cccc(N3CCS(=O)(=O)CC3)c2)c(N2CCC3(CC2)CC3)n1` [Example 101-6, N-(3-(1,1-dioxidothiomorpholino)phenyl)-5-((1-hydroxy-2-methylpropan-2-yl)amino)-3-(6-azaspiro[2.5]octan-6-yl)pyrazine-2-carboxamide], for which the IC50 turned out to be 545 nM. On to `CC(C)(CO)Nc1cnc(C(=O)Nc2cccc(N3CCOCC3)c2)c(N2CCC3(CC2)CC3)n1` [Example 101-7, 5-((1-hydroxy-2-methylpropan-2-yl)amino)-N-(3-morpholinophenyl)-3-(6-azaspiro[2.5]octan-6-yl)pyrazine-2-carboxamide], for which the IC50 is 768 nM. In the case of `CC(C)(CO)Nc1cccc(NC(=O)c2ncc(NC(C)(C)CO)nc2N2CCC3(CC2)CC3)c1` [Example 101-8, 5-((1-hydroxy-2-methylpropan-2-yl)amino)-N-(3-((1-hydroxy-2-methylpropan-2-yl)amino)phenyl)-3-(6-azaspiro[2.5]octan-6-yl)pyrazine-2-carboxamide] it was 240 nM; in that of `CC(C)(CO)Nc1cnc(C(=O)Nc2cccc(S(=O)(=O)C3CCCC3)c2)c(N2CCC3(CC2)CC3)n1` [Example 103, N-(3-(Cyclopentylsulfonyl)phenyl)-5-((1-hydroxy-2-methylpropan-2-yl)amino)-3-(6-azaspiro[2.5]octan-6-yl)pyrazine-2-carboxamide], 77 nM. The same measure for `CC(C)(CO)Nc1cnc(C(=O)Nc2cccc(S(=O)(=O)N3CCCCC3)c2)c(N2CCC3(CC2)CC3)n1` [Example 103-1, 5-((1-hydroxy-2-methylpropan-2-yl)amino)-N-(3-(piperidin-1-ylsulfonyl)phenyl)-3-(6-azaspiro[2.5]octan-6-yl)pyrazine-2-carboxamide]: 135 nM; for `O=C(Nc1cccc(S(=O)(=O)C2CCCC2)c1)c1ncc(NC2(CO)CC2)nc1N1CCC2(CC1)CC2` [Example 103-2, N-(3-(cyclopentylsulfonyl)phenyl)-5-((1-(hydroxymethyl)cyclopropyl)amino)-3-(6-azaspiro[2.5]octan-6-yl)pyrazine-2-carboxamide]: 143 nM; for `CC(C)(C)NS(=O)(=O)c1cccc(NC(=O)c2ncc(NC3(CO)CC3)nc2N2CCC3(CC2)CC3)c1` [Example 103-3, N-(3-(N-(tert-butyl)sulfamoyl)phenyl)-5-((1-(hydroxymethyl)cyclopropyl)amino)-3-(6-azaspiro[2.5]octan-6-yl)pyrazine-2-carboxamide]: 139 nM. In the case of `CC(C)(O)CNc1cnc(C(=O)Nc2cccc(S(=O)(=O)N3CCCCC3)c2)c(N2CCC3(CC2)CC3)n1` [Example 103-4, 5-((2-hydroxy-2-methylpropyl)amino)-N-(3-(piperidin-1-ylsulfonyl)phenyl)-3-(6-azaspiro[2.5]octan-6-yl)pyrazine-2-carboxamide] it was 406 nM. Turning to `CC(C)(C)NS(=O)(=O)c1cccc(NC(=O)c2ncc(NC(C)(C)CO)nc2-c2ccc(Cl)cc2)c1` [Example 104, N-(3-(N-(tert-butyl)sulfamoyl)phenyl)-3-(4-chlorophenyl)-5-((1-hydroxy-2-methylpropan-2-yl)amino)pyrazine-2-carboxamide], the 50% inhibitory concentration (IC50) amounted to 135 nM. The same measure for `CC(C)(C)NS(=O)(=O)c1cccc(NC(=O)c2ncc(NC(C)(C)CO)nc2-c2ccc(F)cc2)c1` [Example 104-1, N-(3-(N-(tert-butyl)sulfamoyl)phenyl)-3-(4-fluorophenyl)-5-((1-hydroxy-2-methylpropan-2-yl)amino)pyrazine-2-carboxamide]: 418 nM; for `CC(C)(C)NS(=O)(=O)c1cccc(NC(=O)c2ncc(NC(C)(C)CO)nc2-c2ccc(C(F)(F)F)cc2)c1` [Example 104-2, N-(3-(N-(tert-butyl)sulfamoyl)phenyl)-5-((1-hydroxy-2-methylpropan-2-yl)amino)-3-(4-(trifluoromethyl)phenyl)pyrazine-2-carboxamide]: 168 nM. For `CCc1ccc(-c2nc(NC(C)(C)CO)cnc2C(=O)Nc2cccc(S(=O)(=O)NC(C)(C)C)c2)cc1` [Example 104-3, N-(3-(N-(tert-butyl)sulfamoyl)phenyl)-3-(4-ethylphenyl)-5-((1-hydroxy-2-methylpropan-2-yl)amino)pyrazine-2-carboxamide], the IC50 was found to be 146 nM. The same measure for `CC(C)c1ccc(-c2nc(NC(C)(C)CO)cnc2C(=O)Nc2cccc(S(=O)(=O)NC(C)(C)C)c2)cc1` [Example 104-4, N-(3-(N-(tert-butyl)sulfamoyl)phenyl)-5-((1-hydroxy-2-methylpropan-2-yl)amino)-3-(4-isopropylphenyl)pyrazine-2-carboxamide]: 141 nM; for `CC(C)(C)NS(=O)(=O)c1cccc(NC(=O)c2ncc(NC(C)(CO)CO)nc2N2CCC3(CC2)CC3)c1` [Example 106, N-(3-(N-(tert-butyl)sulfamoyl)phenyl)-5-((1,3-dihydroxy-2-methylpropan-2-yl)amino)-3-(6-azaspiro[2.5]octan-6-yl)pyrazine-2-carboxamide]: 103 nM.
